From ChEMBL document CHEMBL1201862, “PubChem BioAssay data set” (2004)
Calls of active or inactive are those of the source.

What was measured:
[1] = target: Protein disulfide-isomerase (Homo sapiens, UniProt P07237); assay: PDI inhibitors, insulin aggregation turbidity, dose response, biochemical, absorbance, cherry-picked samples (AID 602350); type: functional
[2] = target: ADP-ribosylation factor GTPase-activating protein 1 (Rattus norvegicus, UniProt Q62848); assay: Fluorescence polarization-based biochemical high throughput dose response screening assay to identify inhibitors of ADP-ribosylation factor GTPase activating protein 1 (ARFGAP1).; type: functional
[3] = CAL PDZ domain peptide-binding inhibitors, dose response, biochemical, fluorescence polarization, untagged CAL PDZ, cherry-pick, set 2 (AID 602254); type: functional
[4] = microbe, parasite or virus in culture; type: functional; conditions: Mycobacterium tuberculosis
[5] = THP-1 cell cytotoxicity, dose response, cytotoxicity control for non-replicating M. tuberculosis project (AID 489025); type: functional
cells = type: functional
Estrogen receptor = target: T1, Estrogen receptor (Homo sapiens, UniProt P03372);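 note: potency for inhibiting coactivator peptide recruitment to the receptor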
T1 sequence (P03372 whole entry): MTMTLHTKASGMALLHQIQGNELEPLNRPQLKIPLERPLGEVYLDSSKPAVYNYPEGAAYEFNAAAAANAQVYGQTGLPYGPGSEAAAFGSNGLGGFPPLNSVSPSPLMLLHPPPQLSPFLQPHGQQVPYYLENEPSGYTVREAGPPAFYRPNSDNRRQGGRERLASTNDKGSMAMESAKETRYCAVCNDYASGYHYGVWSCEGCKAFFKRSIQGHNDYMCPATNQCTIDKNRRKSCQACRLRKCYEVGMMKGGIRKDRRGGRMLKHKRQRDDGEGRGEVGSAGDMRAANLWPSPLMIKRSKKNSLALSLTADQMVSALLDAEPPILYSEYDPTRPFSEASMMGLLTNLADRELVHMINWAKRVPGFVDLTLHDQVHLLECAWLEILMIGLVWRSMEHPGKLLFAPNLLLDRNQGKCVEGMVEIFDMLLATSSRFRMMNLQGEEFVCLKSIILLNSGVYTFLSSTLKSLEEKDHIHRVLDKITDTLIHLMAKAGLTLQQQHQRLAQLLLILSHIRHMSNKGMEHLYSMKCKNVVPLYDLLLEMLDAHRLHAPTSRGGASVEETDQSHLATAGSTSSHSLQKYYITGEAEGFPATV

Estrogen receptor beta [6] = target: T2, Estrogen receptor beta (Homo sapiens, UniProt Q92731);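 note: recombinant ER-beta bound to coactivator SRC1 peptide in presence of estradiol agonist; inhibitors block coactivator peptide binding and lower the FRET signal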
Estrogen receptor beta [7] = target: T2, Estrogen receptor beta; assay: ERβ–SRC-3 coactivator interaction inhibitors, confirmation, orthogonal assay, biochemical, ELISA, streptavidin-HRP readout (AID 1060)
[8] = target: T3, Carboxy-terminal domain RNA polymerase II polypeptide A small phosphatase 1 (Homo sapiens, UniProt Q9GZU7); assay: inhibitors of CTDSP1, concentration-response testing, biochemical assay, absorbance-based, actives from ultra-high-throughput screening (AID 540297); type: functional
T3 sequence (Q9GZU7 whole entry): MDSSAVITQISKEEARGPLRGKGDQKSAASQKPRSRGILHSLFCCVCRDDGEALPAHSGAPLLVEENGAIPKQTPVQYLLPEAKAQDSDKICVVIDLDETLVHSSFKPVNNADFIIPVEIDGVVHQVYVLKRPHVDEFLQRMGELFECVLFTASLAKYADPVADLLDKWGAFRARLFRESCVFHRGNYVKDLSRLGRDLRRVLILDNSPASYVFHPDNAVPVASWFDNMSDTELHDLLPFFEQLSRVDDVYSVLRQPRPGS

[9] = target: DNA (cytosine-5)-methyltransferase 1 (Homo sapiens, UniProt P26358); assay: DNMT1 methyltransferase inhibitors, confirmation, biochemical, fluorescent molecular beacon (AID 602386); type: functional
[10] = target: T4, Sentrin-specific protease 1 (Homo sapiens, UniProt Q9P0U3); assay: potency of human SENP1 inhibitors, dose response, biochemical, kinetic FRET (AID 651697); type: functional; conditions: read-out: IC50_Mean
[11] = target: T4, Sentrin-specific protease 1; assay: Dose response confirmation of small molecule inhibitors of the catalytic domain of the SUMO protease, SENP1 in a FRET assay.; type: functional; conditions: read-out: IC50_Mean
Melanocortin receptor 4 = Melanocortin receptor 4 (Homo sapiens, UniProt P32245); assay: MC4R antagonist potency on cAMP, dose response, cell-based, TR-FRET, biased antagonists (AID 602298); type: functional;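 note: antagonist potency against agonist-stimulated cAMP production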
[12] = nonselective inhibitors of cellular cAMP signaling, dose response, counter-screen for MC4R biased antagonist project, cell-based, TR-FRET cAMP detection (AID 602305); type: functional;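 note: U2OS cells stimulated with forskolin near its EC80 as the cAMP inducer; potency is for inhibition of forskolin-stimulated cAMP signaling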
[13] = LGR2 antagonists, dose response, cell-based, HEK293, CRE-luciferase reporter, cherry pick, set 2 (AID 743343); type: functional;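 note: transfected cells were stimulated with diluted bursicon conditioned medium after compound addition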
[14] = MC4R antagonists, dose response, counter-screen for LGR2 antagonist project, cell-based, plate reader, cherry pick (AID 743444); type: functional;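 note: transfected HEK 293 cells stimulated with alpha-MSH peptide; potency of inhibitors of the alpha-MSH evoked signal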
[15] = HEK293 cell cytotoxicity, dose response, cytotoxicity control, plate reader, cherry-picked samples (AID 743446); type: functional, cell-based
[16] = target: T5, Apoptotic protease-activating factor 1 (Homo sapiens, UniProt O14727); assay: SAR analysis of small molecule Activators of Apaf-1 in a Fluorescent assay.; type: functional; conditions: read-out: EC50_Mean;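 note: caspase-3 cleavage of fluorogenic Rh110 DEVD substrate downstream of apoptosome activation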
T5 sequence (O14727 whole entry): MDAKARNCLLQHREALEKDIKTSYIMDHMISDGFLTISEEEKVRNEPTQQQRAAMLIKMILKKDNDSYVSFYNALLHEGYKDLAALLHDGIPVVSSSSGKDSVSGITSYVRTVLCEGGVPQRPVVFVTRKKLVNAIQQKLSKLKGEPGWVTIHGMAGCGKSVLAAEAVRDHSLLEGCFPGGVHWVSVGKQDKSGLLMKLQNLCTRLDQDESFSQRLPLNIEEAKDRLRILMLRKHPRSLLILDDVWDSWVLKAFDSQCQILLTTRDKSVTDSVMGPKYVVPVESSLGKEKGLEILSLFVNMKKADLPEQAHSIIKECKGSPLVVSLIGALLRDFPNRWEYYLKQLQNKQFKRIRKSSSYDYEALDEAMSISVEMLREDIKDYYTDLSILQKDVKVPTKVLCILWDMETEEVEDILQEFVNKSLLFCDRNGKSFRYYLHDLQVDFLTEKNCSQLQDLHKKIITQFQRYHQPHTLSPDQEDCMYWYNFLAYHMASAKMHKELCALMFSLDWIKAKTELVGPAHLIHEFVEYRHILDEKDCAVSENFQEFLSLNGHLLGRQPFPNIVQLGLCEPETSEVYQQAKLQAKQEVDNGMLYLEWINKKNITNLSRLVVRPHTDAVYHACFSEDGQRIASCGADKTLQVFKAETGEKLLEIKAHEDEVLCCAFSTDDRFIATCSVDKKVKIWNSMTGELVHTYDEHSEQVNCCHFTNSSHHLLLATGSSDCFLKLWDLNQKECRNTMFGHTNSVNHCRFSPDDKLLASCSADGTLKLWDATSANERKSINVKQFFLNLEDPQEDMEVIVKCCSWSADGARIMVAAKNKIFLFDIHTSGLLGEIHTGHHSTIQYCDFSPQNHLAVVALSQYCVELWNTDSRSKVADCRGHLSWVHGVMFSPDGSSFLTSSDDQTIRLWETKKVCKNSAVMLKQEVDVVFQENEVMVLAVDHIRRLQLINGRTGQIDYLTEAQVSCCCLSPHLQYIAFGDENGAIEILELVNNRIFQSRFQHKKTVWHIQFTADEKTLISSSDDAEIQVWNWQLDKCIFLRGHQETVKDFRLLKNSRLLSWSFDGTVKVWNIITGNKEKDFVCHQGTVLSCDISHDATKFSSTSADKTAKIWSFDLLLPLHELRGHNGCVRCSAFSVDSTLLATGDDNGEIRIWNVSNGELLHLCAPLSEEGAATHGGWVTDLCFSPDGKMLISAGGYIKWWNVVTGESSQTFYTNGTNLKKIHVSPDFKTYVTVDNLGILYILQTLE

[17] = target: T6, Neuropeptides B/W receptor type 1 (Homo sapiens, UniProt P48145); assay: GPR7 antagonist potency, late-stage follow-up, cell-based, fluorescence, dose response, set 5 (AID 588566); type: functional
T6 sequence (P48145 whole entry): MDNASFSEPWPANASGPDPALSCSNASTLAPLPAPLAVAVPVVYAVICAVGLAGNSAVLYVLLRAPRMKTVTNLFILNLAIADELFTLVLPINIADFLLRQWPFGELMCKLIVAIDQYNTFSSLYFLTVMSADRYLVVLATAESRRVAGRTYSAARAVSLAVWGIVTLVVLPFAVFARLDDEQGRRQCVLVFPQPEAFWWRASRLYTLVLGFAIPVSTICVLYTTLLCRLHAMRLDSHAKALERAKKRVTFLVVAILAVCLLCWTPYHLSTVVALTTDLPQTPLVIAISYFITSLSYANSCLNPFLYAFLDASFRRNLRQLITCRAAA

[18] = target: Melanin-concentrating hormone receptor 1 (Homo sapiens, UniProt Q99705); assay: Late-stage fluorescence-based counterscreen for antagonists of the G-protein coupled receptor 7 (GPR7): cell-based dose response assay to identify antagonists of the melanin-concentrating hormone receptor 1 (MCHR1) Set 5.; type: functional
[19] = target: T7, Low molecular weight phosphotyrosine protein phosphatase (Homo sapiens, UniProt P24666); type: functional; conditions: read-out: IC50_Mean
T7 sequence (P24666 whole entry): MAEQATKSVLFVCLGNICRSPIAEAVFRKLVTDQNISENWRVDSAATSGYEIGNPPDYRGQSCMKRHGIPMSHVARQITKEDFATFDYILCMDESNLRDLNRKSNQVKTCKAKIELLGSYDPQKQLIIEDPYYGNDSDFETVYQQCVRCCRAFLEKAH

[20] = target: T7, Low molecular weight phosphotyrosine protein phosphatase; type: functional; conditions: read-out: IC50_Mean; remark: listed apart in the source
[21] = target: T8, Tyrosine-protein phosphatase non-receptor type 22 (Homo sapiens, UniProt Q9Y2R2); assay: LYP phosphatase inhibition for selectivity, dose response, selectivity assay for LMPTP inhibitor project, biochemical, fluorescence, LYP catalytic domain (AID 652006); type: functional; conditions: read-out: IC50_Mean
T8 sequence (Q9Y2R2 whole entry): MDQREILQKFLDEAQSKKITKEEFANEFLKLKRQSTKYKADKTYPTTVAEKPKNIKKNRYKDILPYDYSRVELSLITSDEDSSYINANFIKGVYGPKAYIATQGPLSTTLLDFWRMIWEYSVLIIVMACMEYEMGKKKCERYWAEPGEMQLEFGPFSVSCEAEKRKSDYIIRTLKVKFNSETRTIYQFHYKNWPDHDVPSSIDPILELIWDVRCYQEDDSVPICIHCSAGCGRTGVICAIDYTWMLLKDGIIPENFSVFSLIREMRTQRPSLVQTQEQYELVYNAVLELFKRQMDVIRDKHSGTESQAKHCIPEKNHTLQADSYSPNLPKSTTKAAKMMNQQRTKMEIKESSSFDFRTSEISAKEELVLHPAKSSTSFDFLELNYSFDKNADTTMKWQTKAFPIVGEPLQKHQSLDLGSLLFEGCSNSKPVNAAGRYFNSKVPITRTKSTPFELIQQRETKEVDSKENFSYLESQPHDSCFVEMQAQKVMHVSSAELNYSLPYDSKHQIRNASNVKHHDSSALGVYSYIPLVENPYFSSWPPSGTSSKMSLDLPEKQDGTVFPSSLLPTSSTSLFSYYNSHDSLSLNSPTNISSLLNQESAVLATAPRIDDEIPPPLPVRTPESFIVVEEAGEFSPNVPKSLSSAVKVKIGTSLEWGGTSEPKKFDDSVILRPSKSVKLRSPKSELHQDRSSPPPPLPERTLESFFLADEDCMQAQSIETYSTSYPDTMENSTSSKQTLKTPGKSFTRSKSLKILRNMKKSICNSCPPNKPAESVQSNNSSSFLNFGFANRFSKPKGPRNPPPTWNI

Albumin = Albumin (Bos taurus, UniProt P02769); assay: Counterscreen for inhibitors of T-cell receptor (TCR)-CD3 interaction: Fluorescence-based biochemical high throughput dose response assay to identify inhibitors of T-cell receptor (TCR)-CD3 interaction using a TAMRA-labeled BSA probe.; type: functional
Chain of Albumin (P02769 whole entry): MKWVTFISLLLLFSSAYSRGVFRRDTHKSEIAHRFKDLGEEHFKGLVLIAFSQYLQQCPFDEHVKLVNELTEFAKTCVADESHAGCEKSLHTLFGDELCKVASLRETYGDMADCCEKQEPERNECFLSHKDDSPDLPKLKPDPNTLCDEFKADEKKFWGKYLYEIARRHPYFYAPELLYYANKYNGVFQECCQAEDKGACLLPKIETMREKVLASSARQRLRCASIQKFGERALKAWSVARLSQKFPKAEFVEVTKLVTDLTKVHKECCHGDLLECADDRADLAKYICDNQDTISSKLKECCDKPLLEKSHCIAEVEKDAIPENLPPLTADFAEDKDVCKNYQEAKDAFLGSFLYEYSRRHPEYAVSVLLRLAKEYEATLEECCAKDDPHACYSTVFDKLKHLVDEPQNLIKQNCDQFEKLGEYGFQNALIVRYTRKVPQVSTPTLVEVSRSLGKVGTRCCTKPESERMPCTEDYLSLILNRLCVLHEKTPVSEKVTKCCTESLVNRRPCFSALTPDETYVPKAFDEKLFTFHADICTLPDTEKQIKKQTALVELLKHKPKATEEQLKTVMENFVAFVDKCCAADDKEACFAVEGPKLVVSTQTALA

T2 sequence (Q92731 whole entry): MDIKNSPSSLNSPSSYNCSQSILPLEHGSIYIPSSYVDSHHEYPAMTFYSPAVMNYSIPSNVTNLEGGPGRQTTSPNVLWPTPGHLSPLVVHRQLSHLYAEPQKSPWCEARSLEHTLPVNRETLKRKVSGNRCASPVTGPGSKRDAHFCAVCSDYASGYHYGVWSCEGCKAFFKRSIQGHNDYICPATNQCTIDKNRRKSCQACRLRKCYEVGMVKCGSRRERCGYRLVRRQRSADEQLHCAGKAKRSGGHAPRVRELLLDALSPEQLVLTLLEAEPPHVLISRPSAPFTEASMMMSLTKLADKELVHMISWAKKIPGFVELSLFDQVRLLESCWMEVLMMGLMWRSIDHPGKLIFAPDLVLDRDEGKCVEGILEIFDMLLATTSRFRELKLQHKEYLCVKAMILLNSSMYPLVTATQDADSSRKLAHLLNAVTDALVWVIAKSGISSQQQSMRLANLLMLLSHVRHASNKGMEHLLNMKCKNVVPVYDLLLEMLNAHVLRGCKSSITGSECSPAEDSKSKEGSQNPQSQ
Chain of Protein disulfide-isomerase (P07237 whole entry): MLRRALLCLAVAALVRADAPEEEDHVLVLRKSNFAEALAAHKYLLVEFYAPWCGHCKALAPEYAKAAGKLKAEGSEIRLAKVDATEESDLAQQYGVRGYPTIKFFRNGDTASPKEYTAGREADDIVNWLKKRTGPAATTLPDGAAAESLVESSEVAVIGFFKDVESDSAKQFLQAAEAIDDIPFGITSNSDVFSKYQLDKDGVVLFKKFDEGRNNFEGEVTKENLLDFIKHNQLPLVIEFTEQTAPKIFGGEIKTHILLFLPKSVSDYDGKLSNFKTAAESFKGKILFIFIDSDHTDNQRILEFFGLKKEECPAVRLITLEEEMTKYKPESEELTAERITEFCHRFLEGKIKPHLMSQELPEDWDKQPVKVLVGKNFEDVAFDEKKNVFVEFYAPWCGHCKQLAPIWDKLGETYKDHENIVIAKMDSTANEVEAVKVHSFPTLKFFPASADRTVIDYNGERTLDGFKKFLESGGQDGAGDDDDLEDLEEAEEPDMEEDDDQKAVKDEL
T4 sequence (Q9P0U3 whole entry, the tested form may be a part): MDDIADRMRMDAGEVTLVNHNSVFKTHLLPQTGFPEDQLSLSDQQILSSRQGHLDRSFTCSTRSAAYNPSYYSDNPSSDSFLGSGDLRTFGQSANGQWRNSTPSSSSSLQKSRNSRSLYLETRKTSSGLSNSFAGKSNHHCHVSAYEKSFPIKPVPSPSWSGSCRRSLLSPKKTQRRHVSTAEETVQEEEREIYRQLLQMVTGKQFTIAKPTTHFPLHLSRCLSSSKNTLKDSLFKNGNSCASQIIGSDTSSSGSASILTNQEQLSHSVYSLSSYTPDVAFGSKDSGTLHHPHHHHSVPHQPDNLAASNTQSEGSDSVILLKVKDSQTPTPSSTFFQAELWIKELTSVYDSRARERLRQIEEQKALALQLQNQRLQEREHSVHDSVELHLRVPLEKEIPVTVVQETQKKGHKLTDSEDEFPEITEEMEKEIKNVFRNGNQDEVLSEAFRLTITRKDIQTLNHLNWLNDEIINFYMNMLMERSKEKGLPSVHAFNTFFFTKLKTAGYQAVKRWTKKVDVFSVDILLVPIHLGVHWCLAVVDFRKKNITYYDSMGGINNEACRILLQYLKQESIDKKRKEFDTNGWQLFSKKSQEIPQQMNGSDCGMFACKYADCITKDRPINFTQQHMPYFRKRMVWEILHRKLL
Chain of Melanocortin receptor 4 (P32245 whole entry): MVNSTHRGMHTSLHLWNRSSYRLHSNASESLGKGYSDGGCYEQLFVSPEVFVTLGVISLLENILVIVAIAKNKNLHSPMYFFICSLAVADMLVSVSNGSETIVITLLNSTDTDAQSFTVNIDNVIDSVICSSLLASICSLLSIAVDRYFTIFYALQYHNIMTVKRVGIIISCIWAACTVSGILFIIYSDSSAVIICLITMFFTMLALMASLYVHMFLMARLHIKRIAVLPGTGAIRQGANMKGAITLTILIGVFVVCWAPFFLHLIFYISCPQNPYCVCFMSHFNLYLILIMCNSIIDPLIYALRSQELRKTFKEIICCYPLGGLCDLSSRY
Chain of Melanin-concentrating hormone receptor 1 (Q99705 whole entry): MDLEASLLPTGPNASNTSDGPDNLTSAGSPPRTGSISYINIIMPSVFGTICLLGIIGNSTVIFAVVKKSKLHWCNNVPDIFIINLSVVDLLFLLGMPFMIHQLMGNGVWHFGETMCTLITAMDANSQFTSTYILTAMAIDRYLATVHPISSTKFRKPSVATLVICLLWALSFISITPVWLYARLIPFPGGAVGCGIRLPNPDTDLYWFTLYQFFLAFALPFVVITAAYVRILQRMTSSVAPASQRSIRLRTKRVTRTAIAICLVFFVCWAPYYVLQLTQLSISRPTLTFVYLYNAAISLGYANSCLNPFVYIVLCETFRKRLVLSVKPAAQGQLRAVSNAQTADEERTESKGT
Chain of ADP-ribosylation factor GTPase-activating protein 1 (Q62848 whole entry, the tested form may be a part): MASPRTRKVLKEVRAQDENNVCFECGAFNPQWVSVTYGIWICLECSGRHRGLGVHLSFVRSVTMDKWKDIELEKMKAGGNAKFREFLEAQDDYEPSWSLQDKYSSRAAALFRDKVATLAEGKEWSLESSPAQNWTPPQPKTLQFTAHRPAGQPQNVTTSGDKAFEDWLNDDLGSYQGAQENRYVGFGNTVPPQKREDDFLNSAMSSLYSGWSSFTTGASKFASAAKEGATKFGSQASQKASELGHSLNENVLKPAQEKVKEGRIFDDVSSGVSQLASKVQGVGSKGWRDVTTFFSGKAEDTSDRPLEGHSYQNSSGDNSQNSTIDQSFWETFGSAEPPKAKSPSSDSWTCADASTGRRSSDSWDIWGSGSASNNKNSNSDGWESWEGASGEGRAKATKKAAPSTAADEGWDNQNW
Chain of DNA (cytosine-5)-methyltransferase 1 (P26358 whole entry): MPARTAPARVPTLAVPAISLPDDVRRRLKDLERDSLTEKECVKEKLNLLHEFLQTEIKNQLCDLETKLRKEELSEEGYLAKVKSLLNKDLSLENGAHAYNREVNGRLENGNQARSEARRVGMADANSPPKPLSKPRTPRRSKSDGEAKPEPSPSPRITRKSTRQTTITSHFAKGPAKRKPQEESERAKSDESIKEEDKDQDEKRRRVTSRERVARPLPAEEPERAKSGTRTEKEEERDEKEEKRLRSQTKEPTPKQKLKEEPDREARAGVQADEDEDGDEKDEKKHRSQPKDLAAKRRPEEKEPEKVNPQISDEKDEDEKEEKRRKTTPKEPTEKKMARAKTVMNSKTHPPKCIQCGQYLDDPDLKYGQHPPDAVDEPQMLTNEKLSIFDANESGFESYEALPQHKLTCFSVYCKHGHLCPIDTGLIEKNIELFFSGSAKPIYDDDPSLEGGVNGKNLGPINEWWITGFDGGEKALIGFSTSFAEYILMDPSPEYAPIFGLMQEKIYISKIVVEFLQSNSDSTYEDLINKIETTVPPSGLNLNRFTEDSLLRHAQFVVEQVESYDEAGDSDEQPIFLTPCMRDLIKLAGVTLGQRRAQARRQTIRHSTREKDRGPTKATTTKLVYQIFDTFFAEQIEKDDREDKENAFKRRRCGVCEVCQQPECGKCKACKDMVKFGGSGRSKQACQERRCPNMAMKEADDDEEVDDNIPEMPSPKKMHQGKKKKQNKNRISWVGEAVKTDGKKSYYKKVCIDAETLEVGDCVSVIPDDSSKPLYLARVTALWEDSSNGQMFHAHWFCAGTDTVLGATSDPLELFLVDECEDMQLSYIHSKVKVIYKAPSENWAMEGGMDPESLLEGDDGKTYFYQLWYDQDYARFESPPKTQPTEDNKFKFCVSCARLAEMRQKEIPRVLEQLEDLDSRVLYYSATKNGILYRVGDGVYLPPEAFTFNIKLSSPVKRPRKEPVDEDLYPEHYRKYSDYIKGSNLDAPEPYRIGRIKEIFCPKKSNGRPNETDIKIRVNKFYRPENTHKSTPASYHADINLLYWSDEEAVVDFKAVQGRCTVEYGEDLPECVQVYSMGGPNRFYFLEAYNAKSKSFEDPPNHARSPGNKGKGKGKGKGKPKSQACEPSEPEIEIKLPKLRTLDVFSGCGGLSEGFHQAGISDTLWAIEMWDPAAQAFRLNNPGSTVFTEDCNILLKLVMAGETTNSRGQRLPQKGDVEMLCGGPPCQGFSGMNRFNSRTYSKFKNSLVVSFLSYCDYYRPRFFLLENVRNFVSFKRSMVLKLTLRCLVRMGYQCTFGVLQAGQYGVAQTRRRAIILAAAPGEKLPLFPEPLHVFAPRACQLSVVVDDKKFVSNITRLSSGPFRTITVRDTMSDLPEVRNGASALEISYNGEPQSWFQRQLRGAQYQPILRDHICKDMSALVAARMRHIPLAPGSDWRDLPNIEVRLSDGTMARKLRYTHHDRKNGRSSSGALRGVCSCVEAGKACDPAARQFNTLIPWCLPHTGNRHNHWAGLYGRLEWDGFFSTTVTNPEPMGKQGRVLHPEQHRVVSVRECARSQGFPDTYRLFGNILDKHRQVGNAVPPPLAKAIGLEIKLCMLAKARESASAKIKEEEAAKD

CC(C)(C)OC(=O)N[C@@H](Cc1c[nH]c2ccccc12)c1nnc(SCC(N)=O)o1
AC50 [1]: 19.5 µM (active)

Cc1ccc2nc3c(O)n(CC(=O)Nc4ccccc4N4CCN(C)CC4)ncc-3c2c1
IC50 [2]: 74 µM (inactive)

N#Cc1ccc(NC(=S)NCCN2CCOCC2)cc1
AC50 [3]: 107 µM (active)

CCc1cc(OCCCCNCc2ccccc2)ccc1Cl
CC50 [4]: > 40 µM (active)
CC50 [5]: > 40 µM (active)
IC50 (cells): 20.1 µM (active)
AC50 [1]: 10.6 µM (active)

Cc1ccnc(NS(=O)(=O)c2ccc(NC(=O)Cc3cccs3)cc2)n1
IC50 (Estrogen receptor): 12.2 µM (active)
IC50 (Estrogen receptor beta [6]): 3.09 µM (active)
IC50 (Estrogen receptor beta [7]): > 109 µM (not active)
IC50 [8]: 4.2 µM (active)
IC50 [9]: 9.16 µM (active)

Cc1ccc(-n2cc(-c3ccc([N+](=O)[O-])cc3)[nH]c2=S)c(C)c1
IC50 [10]: 54.1 µM (inactive)
IC50 [11]: 17.2 µM (active)

O=C(COC(=O)CNC(=O)c1ccc(Cl)cc1Cl)NCc1ccco1
IC50 (Melanocortin receptor 4): > 64.6 µM (inactive)
IC50 [12]: > 64.6 µM (inactive)

Cc1ccc2nc(-c3ccc(NC(=O)C(C)Sc4nncs4)cc3)sc2c1 (stereo not given)
IC50 (Melanocortin receptor 4): > 64.6 µM (inactive)
IC50 [12]: > 64.6 µM (inactive)
AC50 [13]: 5.56 µM (active)
AC50 [14]: 5.51 µM (active)
AC50 [15]: > 52 µM (inactive)

CCOc1ccccc1NC(=O)CCS(=O)(=O)c1cc2c(cc1Br)CCN2C(=O)CC
EC50 [16]: > 100 µM (inactive)

N#CC(c1ccccc1)c1c(Cl)cnn(Cc2cccc3ccccc23)c1=O (stereo not given)
IC50 [17]: 0.13 µM (active)
IC50 [18]: 7.61 µM (active)

COc1ccc(Oc2c(Cl)cnn(CC(=O)O)c2=O)cc1
IC50 [17]: > 20 µM (inactive)
IC50 [18]: > 20 µM (inactive)

O=C1C(=Cc2cn(-c3ccccc3)nc2-c2ccc(OCc3ccccc3)cc2)SC(=S)N1CCS(=O)(=O)O
IC50 [19]: 7.75 µM (active)
IC50 [20]: 7.03 µM (active)
IC50 [21]: 16.1 µM (active)
IC50 (Albumin): > 94.2 µM (inactive)
